Laboratory results published in patent publication US20210246109A1, “POTENT AND SELECTIVE INHIBITORS OF CYTOCHROME P450” (University of Kentucky Research Foundation, priority 2020, published 2021).
pIC50: −log10 of the molar value. Several values for one entry are separate records, joined by “and”; a condition that tells them apart may be missing. Identical values can stand only once. Like-named read-outs stand apart in the source and are kept apart here.

What was measured:
HEK = assay: Cytotoxicity, resazurin, 72 hours after compound addition; type: cell-based
Description: Cytotoxicity was assessed at 72 hours after compound addition using resazurin. The compounds that function as selective 1B1 inhibitors had no effect on cell health. This is an essential feature for any chemopreventative agent or molecules intended to block the detrimental action of an enzyme.

CYP1B1 = molecular target: T1, CYP1B1 (Homo sapiens, UniProt Q16678); assay: EROD assay in inducible CYP1B1 cell line; type: cell-based
T1 construct: expressed in transfected cells
T1 sequence (Q16678 1-543): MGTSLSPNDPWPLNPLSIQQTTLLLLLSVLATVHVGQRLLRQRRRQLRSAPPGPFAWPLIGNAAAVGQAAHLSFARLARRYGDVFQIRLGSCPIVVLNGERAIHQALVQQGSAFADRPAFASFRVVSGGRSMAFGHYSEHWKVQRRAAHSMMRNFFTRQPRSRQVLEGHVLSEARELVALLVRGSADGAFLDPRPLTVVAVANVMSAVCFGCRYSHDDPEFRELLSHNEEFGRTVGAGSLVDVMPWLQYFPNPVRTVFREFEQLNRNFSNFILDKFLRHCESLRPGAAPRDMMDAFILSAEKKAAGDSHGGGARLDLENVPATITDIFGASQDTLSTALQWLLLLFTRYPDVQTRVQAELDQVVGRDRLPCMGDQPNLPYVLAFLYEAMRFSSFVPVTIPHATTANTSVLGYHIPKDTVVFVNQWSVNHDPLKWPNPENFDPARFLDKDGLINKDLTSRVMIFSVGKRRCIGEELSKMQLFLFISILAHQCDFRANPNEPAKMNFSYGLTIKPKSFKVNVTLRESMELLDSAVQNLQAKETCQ
Description: (§1) The activity of the inhibitors was assessed in a novel cell based assay generated for the purpose of this project. Enzymatic turnover of CYP1B1 was measured using the ethoxy-resorufin-O-deethylase (EROD) assay with the fluorescent substrate, resorufin ethyl ether. Cell lines were generated where the gene for CYP1B1 alone or CYP1B1 and cytochrome P450 reductase (CPR) were both under the control of an inducible promoter. A cell line was generated for counter screening where the gene for CYP1A1 was used. CYP1A1 is the closest family member to CYP1B1.

CYP1A1 = molecular target: T2, CYP1A1 (Homo sapiens, UniProt P04798); assay: EROD assay in CYP1A1 counter-screen cell line; type: cell-based; details: for SI 1B1:1A1: selectivity index
T2 construct: expressed in transfected cells
T2 sequence (P04798 1-512): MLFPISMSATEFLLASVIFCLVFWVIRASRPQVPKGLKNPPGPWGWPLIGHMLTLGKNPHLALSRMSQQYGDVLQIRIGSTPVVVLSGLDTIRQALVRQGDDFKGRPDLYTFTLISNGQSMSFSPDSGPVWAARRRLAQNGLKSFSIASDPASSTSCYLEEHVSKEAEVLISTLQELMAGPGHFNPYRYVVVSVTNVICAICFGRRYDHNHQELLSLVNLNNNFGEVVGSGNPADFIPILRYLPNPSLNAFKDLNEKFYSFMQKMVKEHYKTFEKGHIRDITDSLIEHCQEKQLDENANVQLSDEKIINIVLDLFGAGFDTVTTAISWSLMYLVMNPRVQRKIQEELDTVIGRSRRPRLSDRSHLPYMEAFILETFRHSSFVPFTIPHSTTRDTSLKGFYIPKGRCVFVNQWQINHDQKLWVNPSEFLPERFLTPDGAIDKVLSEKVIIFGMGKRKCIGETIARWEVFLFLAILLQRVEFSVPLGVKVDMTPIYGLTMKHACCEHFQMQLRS
Description: as §1

[1] = molecular target: T3, pooled human liver microsomes (pHLMs) (Homo sapiens, UniProt P05177); assay: EROD counterscreen in pooled human liver microsomes; type: biochemical; details: human, microsomes, Table 3; read-out: IC50 pHLM
T3 sequence (P05177 2-516): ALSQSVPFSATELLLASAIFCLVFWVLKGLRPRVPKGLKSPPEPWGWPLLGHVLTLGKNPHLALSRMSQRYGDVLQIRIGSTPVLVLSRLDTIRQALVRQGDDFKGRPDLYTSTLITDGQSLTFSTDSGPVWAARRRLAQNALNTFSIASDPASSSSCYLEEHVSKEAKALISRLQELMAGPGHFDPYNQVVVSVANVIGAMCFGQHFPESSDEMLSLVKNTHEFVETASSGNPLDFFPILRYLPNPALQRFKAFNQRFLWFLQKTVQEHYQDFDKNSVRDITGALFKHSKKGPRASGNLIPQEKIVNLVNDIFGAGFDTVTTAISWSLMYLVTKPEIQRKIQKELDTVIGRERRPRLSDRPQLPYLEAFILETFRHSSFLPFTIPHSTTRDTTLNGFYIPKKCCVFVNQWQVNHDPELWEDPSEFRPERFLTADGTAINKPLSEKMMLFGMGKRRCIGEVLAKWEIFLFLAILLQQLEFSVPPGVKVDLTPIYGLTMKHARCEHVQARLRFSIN
Description: Human liver microsomes were used as a counterscreen to experimentally determine the magnitude of inhibitor selectivity.

[2] = Table 1, 72 hours, resazurin, read-out: Cytotoxicity IC50
[3] = Table 3, HEK, read-out: HEK cytotoxicity
[4] = Table 2, EROD assay, read-out: IC50 CYP1B1
[5] = Table 2, EROD assay, read-out: IC50 CYP1A1

pIC50 (CYP1B1; Table 3, read-out: IC50 1B1)	pIC50 (CYP1A1; Table 3, read-out: IC50 1A1)	Compound	also measured
–	–	O=c1cc(-c2ccccc2)oc2c1ccc1ccccc12 [ANF, reference compound]	pIC50 (HEK; [2]): < 5.00; pIC50 (HEK; [3]): < 5.00
–	–	COc1ccc(/C=C/c2ccccc2)c(OC)c1 [Compound 1]	activity as CYP1B1 inhibitor, in words (CYP1B1): poor activity
–	–	COc1ccc(/C=C/c2ccncc2)c(OC)c1 [Compound 6]	activity as CYP1B1 inhibitor, in words (CYP1B1): potent
–	–	COc1ccc(/C=C/c2cc[n+](C)cn2)c(OC)c1 [Compound 7]	activity as CYP1B1 inhibitor, in words (CYP1B1): poor activity
–	–	N#CCOc1ccc(/C=C/c2ccncn2)cc1 [Compound 13]	activity as CYP1B1 inhibitor, in words (CYP1B1): potent
4.86	< 5.00	COc1ccc(/C=C/c2cc[n+](C)cn2)c(OC)c1.[I-] [GL461]	HEK cell viability % at 10 μM (HEK; Table 3, HEK): 103%
–	5.35 and < 5.00	COc1ccc(/C=C/c2ccccc2)c(OC)c1 [GL469]	pIC50 [1]: 5.22; HEK cell viability % at 10 μM (HEK; Table 3, HEK): 124.2%
–	5.26 and 5.46	N#CCOc1ccc(-c2nc3ccccc3[nH]2)cc1 [GL509]	pIC50 [1]: 5.08; HEK cell viability % at 10 μM (HEK; Table 3, HEK): 75%
5.61	–	O=c1[nH]c(-c2ccccn2)nc2ccccc12 [GL518]	–
6.01	< 5.00	COc1ccc(-c2nc3ccccc3c(=O)n2CC#N)c(OC)c1 [GL519]	HEK cell viability % at 10 μM (HEK; Table 3, HEK): 88.7%
9.29 and 8.89	5.91 and 5.93	COc1cc(OCC#N)ccc1-c1nc2ccccc2c(=O)[nH]1 [GL521]	pIC50 [1]: < 5.00
–	< 5.00	N#CCOc1ccc(-c2nc3ccccc3[nH]2)cc1 [GL523]	HEK cell viability % at 10 μM (HEK; Table 3, HEK): 93.4%
7.29	< 5.00	N#CCOc1ccc(/C=N/c2ccccc2C(N)=O)cc1 [GL542]	–
–	5.36	N#CCOc1ccc(-c2nc3ccccc3c(=O)[nH]2)c(OCC#N)c1 [GL545]	–
7.69	5.46	N#CCOc1ccc(-c2nc3ccccc3c(=O)[nH]2)cc1OCC#N [GL546]	–
> 9.60	6.25	COc1cc(-c2nc3ccc(I)cc3c(=O)[nH]2)ccc1OCC#N [GL551]	pIC50 [1]: < 5.52
8.74	< 5.00	COc1cc(-c2nc3ccc(C#Cc4ccccc4)cc3c(=O)[nH]2)ccc1OCC#N [GL552]	–
8.42	5.32	COc1ccc(-c2nc3ccccc3c(=O)[nH]2)cc1 [GL553]	–
8.46	5.48	COc1ccc(-c2nc(OCC#N)c3ccccc3n2)cc1 [GL554]	–
8.17	5.59	COc1ccc(-c2nc(OC)c3ccccc3n2)cc1 [GL556]	–
> 9.15	5.76	COc1cc(-c2nc(OCC#N)c3ccccc3n2)ccc1OCC#N [GL557]	–
> 9.15	5.61	COc1nc(-c2ccc(OCC#N)cc2)nc2ccccc12 [GL558]	–
> 8.60	5.71	N#CCOc1ccc(-c2nc(OCCCCCCBr)c3ccccc3n2)cc1 [GL564]	pIC50 [1]: < 5.00
> 8.60	5.73	N#CCOc1ccc(-c2nc(OCCCCCCN=[N+]=[N-])c3ccccc3n2)cc1 [GL565]	pIC50 [1]: < 5.00
> 8.60	5.89	CC(C)(C)OC(=O)NCCCOc1nc(-c2ccc(OCC#N)cc2)nc2ccccc12 [GL571]	pIC50 [1]: < 5.00
> 8.60	5.67	N#CCOc1ccc(-c2nc(OCCCN)c3ccccc3n2)cc1 [GL572]	pIC50 [1]: < 5.00
5.03	5.96	O=C(NCCCOc1ccc(CCc2ccncn2)cc1)OCCOCCOCCOC(=O)NC12CC3CC(CC(C3)C1)C2 [GL594]	–

pIC50 (CYP1B1; Table 3, read-out: IC50 1B1)	pIC50 (CYP1A1; Table 3, read-out: IC50 1A1)	Compound	also measured
8.21	–	[N-]=[N+]=NCCCOc1ccc(-c2nc3ccccc3c(=O)[nH]2)cc1 [GL627]	–
6.90	–	N#CCOc1nc(-c2ccc(OCCCN=[N+]=[N-])cc2)nc2ccccc12 [GL628]	–
–	–	N#CCOc1ccc(-c2nc(-c3cccnc3)cs2)cc1 [GL641]	pIC50 (CYP1B1; [4]): 9.42; pIC50 (CYP1A1; [5]): 5.58; SI 1B1:1A1 (CYP1A1): 6833
7.66	7.07	O=c1[nH]c(-c2ccc(Cl)cc2)nc2ccccc12 [GL642]	–
10.00	6.90	N#CCOc1nc(-c2ccc(Cl)cc2)nc2ccccc12 [GL643]	–
–	–	N#Cc1ccc(-c2csc(-c3ccc(O)cc3)n2)cc1 [GL649]	pIC50 (CYP1B1; [4]): 6.03; pIC50 (CYP1A1; [5]): 4.78; SI 1B1:1A1 (CYP1A1): 17.6
8.55	5.96	O=c1[nH]c(-c2ccc3ccccc3n2)nc2ccccc12 [GL651]	–
7.72	5.73	N#CCOc1ccc(/C=C/c2ccc(COC#N)cc2COC#N)cc1 [GL652]	–
–	–	N#Cc1ccc(-c2csc(-c3cccnc3)n2)cc1 [GL656]	pIC50 (CYP1B1; [4]): 6.41
< 6.00	< 5.00	Cn1c(-c2ccc3ccccc3n2)nc2ccccc2c1=O [GL659]	–
–	–	C#CCOc1ccc(-c2nc(-c3ccc(C#N)cc3)cs2)cc1 [GL664]	pIC50 (CYP1B1; [4]): 6.69; pIC50 (CYP1A1; [5]): 6.16; SI 1B1:1A1 (CYP1A1): 3.44
–	–	Fc1ccc(-c2csc(-c3ccccn3)n2)cc1C(F)(F)F [GL666]	pIC50 (CYP1B1; [4]): 7.08; pIC50 (CYP1A1; [5]): 6.62; SI 1B1:1A1 (CYP1A1): 2.86
–	–	COc1ccc(-c2nc(-c3ccc(O)cc3)cs2)c(OC)c1 [GL673]	pIC50 (CYP1B1; [4]): 7.00
–	–	Oc1ccc(-c2nc(-c3ccc(F)c(C(F)(F)F)c3)cs2)cc1 [GL678]	pIC50 (CYP1B1; [4]): 6.68; pIC50 (CYP1A1; [5]): 4.83; SI 1B1:1A1 (CYP1A1): 70.5
7.39	5.64	O=c1[nH]c(-c2ccc(F)c(C(F)(F)F)c2)nc2ccccc12 [GL-700]	–
–	6.60	N#CCOc1nc(-c2ccc(F)c(C(F)(F)F)c2)nc2ccccc12 [GL-701]	–
7.07	6.49	Fc1ccc(-c2nc3ccccc3[nH]2)cc1C(F)(F)F [GL-706]	–
7.36	6.12	c1ccc2nc(-c3nc4ccccc4[nH]3)ccc2c1 [GL-707]	–
6.26	5.52	COc1cc(C(=O)/C=C/c2ccc3ccccc3n2)cc(OC)c1OC [GL-713]	–
5.96	5.28	COc1ccc(/C=C/C(=O)c2cc(OC)c(OC)c(OC)c2)c(OC)c1 [GL-714]	–
5.72	5.41	Oc1nc(-c2ccc(F)cc2)nc2ccccc12 [GL-717]	–
6.07	7.82	N#CCOc1nc(-c2ccc(F)cc2)nc2ccccc12 [GL-718]	–
5.52	5.28	Fc1ccc(-c2nc3ccccc3[nH]2)cc1 [GL-719]	–
6.70	–	O=c1[nH]c(-c2cccc(C(F)(F)F)c2)nc2ccccc12 [GL-728]	–
–	7.30	N#CCOc1nc(-c2cccc(C(F)(F)F)c2)nc2ccccc12 [GL-729]	–
–	–	COc1cc(/C=C/c2ccc(OC)cc2OC)cc(OC)c1 [TMS, reference compound]	pIC50 (CYP1B1; Table 1, read-out: CYP1B1 IC50): 8.08; pIC50 (HEK; [2]): 5.00; pIC50 (HEK; [3]): < 5.00

Compound	pIC50 (CYP1B1; Table 3, read-out: IC50 1B1)	pIC50 (CYP1A1; Table 3, read-out: IC50 1A1)	also measured
N#CCOc1ccc(-c2nc(OCC#N)c3ccccc3n2)cc1 [GL- 561]	–	5.44	–
